Source: patent US20140179664A1, “Heterocyclyl Pyrimidine Analogues As JAK Inhibitors” (Cellzome Limited, priority 2011, published 2014)

Assays:
Type in all cases: binding
TYK2 = molecular target: T1, TYK2 (Homo sapiens, UniProt P29597); assay: Kinobeads assay, TYK2; conditions: mixed Molt4/Ramos lysate, read-out: Inhibition values (IC50) TYK2
T1 construct: endogenous in cells; host or cells: Molt4 (ATCC CRL-1582) and Ramos (ATCC CRL-1596), mixed lysate 1:2
Protocol: (§1) The compounds of the present invention as described in the previous examples were tested in a Kinobeads™ assay as described for ZAP-70 (WO-A 2007/137867). Briefly, test compounds (at various concentrations) and the affinity matrix with the immobilized aminopyrido-pyrimidine ligand 24 were added to cell lysate aliquots and allowed to bind to the proteins in the lysate sample. After the incubation time the beads with captured proteins were separated from the lysate. Bound proteins were then eluted and the presence of JAK1, JAK2, JAK3 and TYK2 was detected and quantified using specific antibodies in a dot blot procedure and the Odyssey infrared detection system. Dose response curves for individual kinases were generated and IC50 values calculated. Kinobeads™ assays for ZAP-70 (WO-A 2007/137867) and for kinase selectivity profiling (WO-A 2006/134056) have been previously described.
(§2) The affinity matrix was washed two times with 15 mL of lx DP buffer containing 0.2% NP40 (IGEPAL® CA-630, Sigma, #13021) and then resuspended in 1×DP buffer containing 0.2% NP40 (3% beads slurry).
(§3) 5×DP buffer: 250 mM Tris-HCl pH 7.4, 25% Glycerol, 7.5 mM MgCl2, 750 mM NaCl, 5 mM Na3VO4; filter the 5×DP buffer through a 0.22 μm filter and store in aliquots at −80° C. The 5×DP buffer is diluted with H2O to 1×DP buffer containing 1 mM DTT and 25 mM NaF.
(§4) Stock solutions of test compounds were prepared in DMSO. In a 96 well plate […] solution of diluted test compounds at 5 mM in DMSO were prepared. Starting with this solution a 1:3 dilution series (9 steps) was prepared. For control experiments (no test compound) a buffer containing 2% DMSO was used.
(§5) Molt4 cells (ATCC catalogue number CRL-1582) and Ramos cells (ATCC catalogue number CRL-1596) were grown in 1 L Spinner flasks (Integra Biosciences, #182101) in suspension in RPMI 1640 medium (Invitrogen, #21875-034) supplemented with 10% Fetal Bovine Serum (Invitrogen) at a density between 0.15×10^6 and 1.2×10^6 cells/mL. Cells were harvested by centrifugation, washed once with 1×PBS buffer (Invitrogen, #14190-094) and cell pellets were frozen in liquid nitrogen and subsequently stored at −80° C. Cells were homogenized in a Potter S homogenizer in lysis buffer: 50 mM Tris-HCl, 0.8% NP40, 5% glycerol, 150 mM NaCl, 1.5 mM MgCl2, 25 mM NaF, 1 mM sodium vanadate, 1 mM DTT, pH 7.5. One complete EDTA-free tablet (protease inhibitor cocktail, Roche Diagnostics, 1873580) per 25 mL buffer was added. The material was dounced 10 times using a mechanized POTTER S, transferred to 50 mL falcon tubes, incubated for 30 minutes on ice and spun down for 10 minutes at 20,000 g at 4° C. (10,000 rpm in Sorvall SLA600, precooled). The supernatant was transferred to an ultracentrifuge (UZ)-polycarbonate tube (Beckmann, 355654) and spun for 1 hour at 100.000 g at 4° C. (33.500 rpm in Ti50.2, precooled). The supernatant was transferred again to a fresh 50 mL falcon tube, the protein concentration was determined by a Bradford assay (BioRad) and samples containing 50 mg of protein per aliquot were prepared. The samples were immediately used for experiments or frozen in liquid nitrogen and stored frozen at −80° C.
(§6) Cell lysate (approximately 50 mg protein per plate) was thawed in a water bath at room temperature and then stored on ice. To the thawed cell lysate 1×DP 0.8% NP40 buffer containing protease inhibitors (1 tablet for 25 mL buffer; EDTA-free protease inhibitor cocktail; Roche Diagnostics 1873580) was added in order to reach a final protein concentration of 10 mg/mL total protein. The diluted cell lysate was stored on ice. Mixed Molt4/Ramos lysate was prepared by combining one volume of Molt4 lysate and two volumes of Ramos lysate (ratio 1:2).
(§7) To a 96 well filter plate (Multiscreen HTS, BV Filter Plates, Millipore #MSBVN1250) were added per well: 100 μL affinity matrix (3% beads slurry), […], of compound solution, and 50 μL of diluted lysate. […]

JAK2 = molecular target: T2, JAK2 (Homo sapiens, UniProt O60674); assay: Kinobeads assay, JAK2; conditions: mixed Molt4/Ramos lysate, read-out: Inhibition values (IC50) JAK2
T2 construct: endogenous in cells; host or cells: Molt4 (ATCC CRL-1582) and Ramos (ATCC CRL-1596), mixed lysate 1:2
Protocol: as §1, §2, §3, §4, §5, §6, §7

JAK1 = molecular target: T3, JAK1 (Homo sapiens, UniProt P23458); assay: Kinobeads assay, JAK1; conditions: mixed Molt4/Ramos lysate, read-out: Inhibition values (IC50) JAK1
T3 construct: endogenous in cells; host or cells: Molt4 (ATCC CRL-1582) and Ramos (ATCC CRL-1596), mixed lysate 1:2
Protocol: After the incubation time the beads with captured proteins were separated from the lysate. Bound proteins were then eluted and the presence of JAK1, JAK2, JAK3 and TYK2 was detected and quantified using specific antibodies in a dot blot procedure and the Odyssey infrared detection system. Dose response curves for individual kinases were generated and IC50 values calculated.
as §3
Stock solutions of test compounds were prepared in DMSO. […] Starting with this solution a 1:3 dilution series (9 steps) was prepared. For control experiments (no test compound) a buffer containing 2% DMSO was used.
Cells were homogenized in a Potter S homogenizer in lysis buffer: 50 mM Tris-HCl, 0.8% NP40, 5% glycerol, 150 mM NaCl, 1.5 mM MgCl2, 25 mM NaF, 1 mM sodium vanadate, 1 mM DTT, pH 7.5. […] The material was dounced 10 times using a mechanized POTTER S, transferred to 50 mL falcon tubes, incubated for 30 minutes on ice and spun down for 10 minutes at 20,000 g at 4° C. (10,000 rpm in Sorvall SLA600, precooled). […] (33.500 rpm in Ti50.2, precooled). The supernatant was transferred again to a fresh 50 mL falcon tube, the protein concentration was determined by a Bradford assay (BioRad) and samples containing 50 mg of protein per aliquot were prepared. The samples were immediately used for experiments or frozen in liquid nitrogen and stored frozen at −80° C.
Cell lysate (approximately 50 mg protein per plate) was thawed in a water bath at room temperature and then stored on ice. […] The diluted cell lysate was stored on ice. Mixed Molt4/Ramos lysate was prepared by combining one volume of Molt4 lysate and two volumes of Ramos lysate (ratio 1:2).
Plates were sealed and incubated for 3 hours in a cold room on a plate shaker (Heidolph tiramax 1000) at 750 rpm. Afterwards the plate was washed 3 times with 230 μL washing buffer (1×DP 0.4% NP40). […] The eluate was frozen quickly at −80° C. and stored at −20° C.
Afterwards the membrane was washed twice for 10 minutes with PBS buffer containing 0.2% Tween 20 at room temperature. […] Afterwards the membrane was washed twice for 10 minutes each with 1×PBS buffer containing 0.2% Tween 20 at room temperature. Then the membrane was rinsed once with PBS buffer to remove residual Tween 20. The membrane was kept in PBS buffer at 4° C. and then scanned with the Odyssey instrument. Fluorescence signals were recorded and analysed according to the instructions of the manufacturer.

T3 sequence (P23458 whole entry): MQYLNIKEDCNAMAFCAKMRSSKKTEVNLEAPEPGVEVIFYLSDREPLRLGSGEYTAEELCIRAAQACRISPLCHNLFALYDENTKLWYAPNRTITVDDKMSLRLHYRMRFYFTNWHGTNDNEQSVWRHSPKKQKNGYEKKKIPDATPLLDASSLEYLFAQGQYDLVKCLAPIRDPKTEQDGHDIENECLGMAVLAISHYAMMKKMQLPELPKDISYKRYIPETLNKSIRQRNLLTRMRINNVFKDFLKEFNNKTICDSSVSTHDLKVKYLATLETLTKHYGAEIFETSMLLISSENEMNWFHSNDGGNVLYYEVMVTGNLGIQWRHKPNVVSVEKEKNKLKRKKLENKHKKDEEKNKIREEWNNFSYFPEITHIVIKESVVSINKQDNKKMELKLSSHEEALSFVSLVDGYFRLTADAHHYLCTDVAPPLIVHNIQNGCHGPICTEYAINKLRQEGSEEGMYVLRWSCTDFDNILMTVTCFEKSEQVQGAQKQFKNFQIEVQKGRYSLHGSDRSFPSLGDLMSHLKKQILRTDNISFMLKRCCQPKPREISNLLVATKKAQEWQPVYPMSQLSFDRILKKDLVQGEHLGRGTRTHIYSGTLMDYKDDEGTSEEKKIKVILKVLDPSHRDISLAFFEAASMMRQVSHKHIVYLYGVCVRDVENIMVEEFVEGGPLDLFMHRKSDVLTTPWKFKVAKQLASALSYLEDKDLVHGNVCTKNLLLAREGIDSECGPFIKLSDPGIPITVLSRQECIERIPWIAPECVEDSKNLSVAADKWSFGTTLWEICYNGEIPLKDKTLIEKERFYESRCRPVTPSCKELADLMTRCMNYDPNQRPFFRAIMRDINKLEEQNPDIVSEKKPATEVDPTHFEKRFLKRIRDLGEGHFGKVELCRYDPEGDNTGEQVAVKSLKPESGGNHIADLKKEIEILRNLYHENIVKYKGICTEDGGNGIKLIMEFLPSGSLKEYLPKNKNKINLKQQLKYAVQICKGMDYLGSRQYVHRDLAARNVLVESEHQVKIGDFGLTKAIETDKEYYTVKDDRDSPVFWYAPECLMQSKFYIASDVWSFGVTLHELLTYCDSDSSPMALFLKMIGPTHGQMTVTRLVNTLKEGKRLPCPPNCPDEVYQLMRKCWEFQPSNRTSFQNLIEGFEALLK
T1 sequence (P29597 whole entry): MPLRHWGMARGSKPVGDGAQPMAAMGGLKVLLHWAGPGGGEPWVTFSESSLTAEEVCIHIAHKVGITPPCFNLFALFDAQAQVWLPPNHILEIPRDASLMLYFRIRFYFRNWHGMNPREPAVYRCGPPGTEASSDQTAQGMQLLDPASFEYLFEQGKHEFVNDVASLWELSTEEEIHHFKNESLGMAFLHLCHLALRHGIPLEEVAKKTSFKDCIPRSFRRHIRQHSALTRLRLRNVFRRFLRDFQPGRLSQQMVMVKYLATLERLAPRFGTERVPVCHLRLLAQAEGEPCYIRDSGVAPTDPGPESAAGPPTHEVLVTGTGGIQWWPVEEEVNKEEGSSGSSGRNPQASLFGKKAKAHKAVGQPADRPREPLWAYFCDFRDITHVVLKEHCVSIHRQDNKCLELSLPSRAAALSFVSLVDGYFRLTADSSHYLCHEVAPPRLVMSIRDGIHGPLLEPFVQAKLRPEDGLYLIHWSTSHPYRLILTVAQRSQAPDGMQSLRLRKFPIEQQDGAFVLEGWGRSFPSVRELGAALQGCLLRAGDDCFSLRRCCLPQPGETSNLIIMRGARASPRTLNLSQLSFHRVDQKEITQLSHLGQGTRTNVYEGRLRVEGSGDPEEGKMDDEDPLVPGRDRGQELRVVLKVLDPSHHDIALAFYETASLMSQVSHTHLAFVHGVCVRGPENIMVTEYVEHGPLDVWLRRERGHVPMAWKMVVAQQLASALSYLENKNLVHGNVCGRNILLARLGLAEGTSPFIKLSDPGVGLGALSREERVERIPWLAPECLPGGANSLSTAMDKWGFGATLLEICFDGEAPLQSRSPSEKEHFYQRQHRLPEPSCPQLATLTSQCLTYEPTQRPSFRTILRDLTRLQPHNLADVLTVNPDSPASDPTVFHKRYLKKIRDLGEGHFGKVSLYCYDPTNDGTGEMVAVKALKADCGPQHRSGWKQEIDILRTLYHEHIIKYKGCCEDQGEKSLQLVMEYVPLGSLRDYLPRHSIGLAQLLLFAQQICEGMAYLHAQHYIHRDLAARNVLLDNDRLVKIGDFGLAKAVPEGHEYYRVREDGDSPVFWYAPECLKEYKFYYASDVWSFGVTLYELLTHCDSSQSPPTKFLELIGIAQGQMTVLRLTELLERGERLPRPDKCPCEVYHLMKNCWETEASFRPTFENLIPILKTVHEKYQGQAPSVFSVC
T2 sequence (O60674 whole entry): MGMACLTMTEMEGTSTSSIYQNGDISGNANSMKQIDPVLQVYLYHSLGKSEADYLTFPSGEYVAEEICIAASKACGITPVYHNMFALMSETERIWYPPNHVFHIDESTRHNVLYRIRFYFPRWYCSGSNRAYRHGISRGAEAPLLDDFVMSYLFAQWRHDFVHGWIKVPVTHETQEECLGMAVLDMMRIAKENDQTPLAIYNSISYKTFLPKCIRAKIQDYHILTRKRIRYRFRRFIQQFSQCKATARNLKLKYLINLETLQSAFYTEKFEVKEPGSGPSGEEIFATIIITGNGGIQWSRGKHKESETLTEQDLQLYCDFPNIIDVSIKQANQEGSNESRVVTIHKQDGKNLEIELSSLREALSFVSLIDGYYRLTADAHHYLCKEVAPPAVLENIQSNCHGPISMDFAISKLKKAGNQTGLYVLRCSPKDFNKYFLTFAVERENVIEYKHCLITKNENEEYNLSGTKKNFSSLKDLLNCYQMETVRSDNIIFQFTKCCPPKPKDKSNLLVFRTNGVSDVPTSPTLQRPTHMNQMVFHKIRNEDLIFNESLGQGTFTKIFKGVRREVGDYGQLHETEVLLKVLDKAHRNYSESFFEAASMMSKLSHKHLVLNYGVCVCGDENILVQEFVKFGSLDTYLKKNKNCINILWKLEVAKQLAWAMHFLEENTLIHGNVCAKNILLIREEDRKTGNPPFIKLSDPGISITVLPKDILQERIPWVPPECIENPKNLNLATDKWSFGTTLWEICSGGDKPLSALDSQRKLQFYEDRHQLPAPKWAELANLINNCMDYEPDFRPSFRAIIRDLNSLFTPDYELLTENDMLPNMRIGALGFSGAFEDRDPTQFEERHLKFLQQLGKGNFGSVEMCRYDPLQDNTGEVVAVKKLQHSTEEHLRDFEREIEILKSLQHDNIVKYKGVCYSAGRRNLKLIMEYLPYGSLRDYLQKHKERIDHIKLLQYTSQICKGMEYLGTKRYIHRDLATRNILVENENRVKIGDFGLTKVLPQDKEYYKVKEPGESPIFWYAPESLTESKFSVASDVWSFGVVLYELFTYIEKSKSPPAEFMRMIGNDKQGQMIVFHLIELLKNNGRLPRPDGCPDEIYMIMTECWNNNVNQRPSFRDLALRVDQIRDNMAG

SMILES | IC50 (TYK2) [µM] | IC50 (JAK2) [µM] | IC50 (JAK1) [µM]
Cn1cc(Nc2ncc(F)c(N[C@H](CO)c3cc(F)cc(-c4cnn(C)c4)c3)n2)cn1 [Compound 150] | ≥ 10 | ≥ 10 | 1 to 10
Cn1cc(Nc2ncc(Cl)c(N[C@H](CO)c3cccc(-c4cnn(C)c4)c3)n2)cn1 [Compound 136] | ≥ 10 | ≥ 10 | > 10
NC(=O)Cn1cc(Nc2ncc(F)c(N[C@H](CO)c3ccccc3)n2)cn1 [Compound 108] | 1 to 10 | ≥ 10 | 1 to 10
CC(C)n1cc(Nc2ncc(Cl)c(N[C@H](CO)c3ccccc3F)n2)cn1 [Compound 110] | 1 to 10 | 0.1 to 1 | 1 to 10
Cn1cc(Nc2ncc(Cl)c(N[C@H](CO)c3cc(F)cc(-c4cnn(C)c4)c3)n2)cn1 [Compound 137] | 1 to 10 | 1 to 10 | 1 to 10
Cn1cc(Nc2ncc(Cl)c(N[C@H](CO)c3ccccc3)n2)cn1 [Compound 4] | 1 to 10 | 1 to 10 | 1 to 10
OC[C@@H](Nc1nc(Nc2cnn(CC(F)F)c2)ncc1Cl)c1ccccc1F [Compound 165] | 1 to 10 | 1 to 10 | 0.1 to 1
CN(C)C(=O)C(Nc1nc(Nc2cnn(CCO)c2)ncc1Cl)c1ccccc1F (stereo not drawn) [Compound 127] | 1 to 10 | 1 to 10 | 1 to 10

Second part, the molecule after the results:

IC50 (TYK2) [µM] | IC50 (JAK2) [µM] | IC50 (JAK1) [µM] | SMILES
0.1 to 1 | 0.1 to 1 | 0.1 to 1 | Cn1cc(Nc2ncc(Cl)c(NC(CO)c3cc(F)ccc3F)n2)cn1 (stereo not drawn) [Compound 129]
0.1 to 1 | 1 to 10 | 0.1 to 1 | CNC(=O)Cn1cc(Nc2ncc(Cl)c(N[C@H](CO)c3ccccc3OC)n2)cn1 [Compound 98]
1 to 10 | 1 to 10 | 0.1 to 1 | CNC(=O)Cn1cc(Nc2ncc(Cl)c(NC(CO)c3ccccc3Cl)n2)cn1 (stereo not drawn) [Compound 119]
1 to 10 | 1 to 10 | 0.1 to 1 | OCCn1cc(Nc2ncc(Cl)c(N[C@H](CO)c3ccccc3)n2)cn1 [Compound 9]
0.1 to 1 | ≥ 10 | 1 to 10 | O=C(Cn1cc(Nc2ncc(F)c(N[C@H](CO)c3ccccc3)n2)cn1)N1CCOCC1 [Compound 112]
1 to 10 | 1 to 10 | 0.1 to 1 | CN1CCC(n2cc(Nc3ncc(Cl)c(N[C@H](CO)c4ccccc4)n3)cn2)C1=O (stereo partly drawn) [Compound 135]
1 to 10 | 1 to 10 | 0.1 to 1 | Cn1cc(Nc2ncc(Cl)c(NC(CO)c3cc(F)cc(F)c3)n2)cn1 (stereo not drawn) [Compound 121]
0.1 to 1 | 1 to 10 | 0.1 to 1 | C[C@@H](CO)NC(=O)Cn1cc(Nc2ncc(Cl)c(N[C@H](CO)c3ccccc3F)n2)cn1 [Compound 116]
0.1 to 1 | 1 to 10 | 0.1 to 1 | OCCn1cc(Nc2ncc(F)c(N[C@H](CO)c3cc(F)cc(F)c3)n2)cn1 [Compound 159]
